Test results taken from patent US12723063B2, “GIPR-agonist compounds” (Eli Lilly and Company, priority 2019, dated 2026).
pKi: −log10 of the molar value. *1 amine or outer side, *2 acyl side, *3 side chain or, on linkers, in order; H or OH if unused. Where a SMILES comes first, the peptide text is derived from it. Side-chain parts run from the residue outwards. [ ]: non-standard residue; d: D form. The star is where a group is joined. C20 diacid = O=C(O)CCCCCCCCCCCCCCCCCCC(=O)*; αMePhe(2-F) = C[C@](N)(Cc1ccccc1F)C(=O)O; γGlu = O=C(O)[C@H](CCC(=O)[*:2])N[*:1]; αMeF = C[C@](N)(Cc1ccccc1)C(=O)O; 4Pal = N[C@@H](Cc1ccncc1)C(=O)O; αMeL = CC(C)C[C@](C)(N)C(=O)O; AEEA = NCCOCCOCC(=O)O; Aib = CC(C)(N)C(=O)O

Molecular target: T1, human GcgR (Homo sapiens, UniProt P47871)
T1 construct: expressed in transfected cells; crude membranes
T1 sequence (P47871 26-477): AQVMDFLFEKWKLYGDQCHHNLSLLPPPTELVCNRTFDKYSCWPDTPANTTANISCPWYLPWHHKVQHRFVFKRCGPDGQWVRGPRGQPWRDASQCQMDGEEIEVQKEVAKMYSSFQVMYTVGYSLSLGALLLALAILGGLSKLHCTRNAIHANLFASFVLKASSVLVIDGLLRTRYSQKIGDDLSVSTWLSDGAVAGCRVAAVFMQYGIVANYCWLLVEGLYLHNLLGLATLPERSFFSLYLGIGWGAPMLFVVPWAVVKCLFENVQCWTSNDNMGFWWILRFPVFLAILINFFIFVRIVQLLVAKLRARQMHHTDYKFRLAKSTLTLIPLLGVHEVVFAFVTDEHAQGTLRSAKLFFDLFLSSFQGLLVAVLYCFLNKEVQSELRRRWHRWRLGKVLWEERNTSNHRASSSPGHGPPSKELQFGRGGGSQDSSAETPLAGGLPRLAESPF
Experiment: [125I]-Glucagon binding, SPA with WGA beads, 0.1% bacitracin
Conditions: geometric mean, read-out: hGcgR Ki
Summary of the method: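 SPA competition binding with WGA beads on crude membranes from HEK293 cells stably expressing hGcgR. Buffer: 25 mM HEPES pH 7.4, 2.5 mM CaCl2, 1 mM MgCl2, 0.1% bacitracin, 0.003% Tween-20; 10-point 3-fold dilutions, NSB with 1 μM Gcg.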

| Structure (SMILES) | pKi |
| --- | --- |
| CC[C@H](C)[C@H](NC(=O)[C@H](CO)NC(=O)[C@H](Cc1ccc(O)cc1)NC(=O)[C@H](CC(=O)O)NC(=O)[C@H](CO)NC(=O)[C@@H](NC(=O)[C@](C)(Cc1ccccc1)NC(=O)[C@@H](NC(=O)CNC(=O)[C@H](CCC(=O)O)NC(=O)C(C)(C)NC(=O)[C@@H](N)Cc1ccc(O)cc1)[C@@H](C)O)[C@@H](C)CC)C(=O)N[C@@](C)(CC(C)C)C(=O)N[C@@H](CC(C)C)C(=O)N[C@@H](CC(=O)O)C(=O)N[C@@H](CCCCN)C(=O)N[C@@H](CCCCNC(=O)COCCOCCNC(=O)COCCOCCNC(=O)CC[C@H](NC(=O)CCCCCCCCCCCCCCCCCCC(=O)O)C(=O)O)C(=O)N[C@@H](Cc1c[nH]cn1)C(=O)N[C@@H](CCC(N)=O)C(=O)NC(C)(C)C(=O)N[C@@H](CC(=O)O)C(=O)N[C@@H](Cc1ccccc1)C(=O)N[C@H](C(=O)N[C@@H](CCC(=O)O)C(=O)N[C@@H](Cc1ccncc1)C(=O)N[C@@H](CC(C)C)C(=O)N[C@@H](CC(C)C)C(=O)N[C@@H](C)C(=O)NCC(=O)NCC(=O)N1CCC[C@H]1C(=O)N[C@@H](CO)C(=O)N[C@@H](CO)C(=O)NCC(=O)N[C@@H](C)C(=O)N1CCC[C@H]1C(=O)N1CCC[C@H]1C(=O)N1CCC[C@H]1C(=O)N[C@@H](CO)C(N)=O)C(C)C [Example 50] (H-Y[Aib]EGT[αMeF]ISDYSI[αMeL]LDKK([AEEA-AEEA-γGlu-C20 diacid])HQ[Aib]DFVE[4Pal]LLAGGPSSGAPPPS-NH2) | 7.63 |
| CC[C@H](C)[C@H](NC(=O)[C@H](CO)NC(=O)[C@H](Cc1ccc(O)cc1)NC(=O)[C@H](CC(=O)O)NC(=O)[C@H](CO)NC(=O)[C@@H](NC(=O)[C@](C)(Cc1ccccc1)NC(=O)[C@@H](NC(=O)CNC(=O)[C@H](CCC(=O)O)NC(=O)C(C)(C)NC(=O)[C@@H](N)Cc1ccc(O)cc1)[C@@H](C)O)[C@@H](C)CC)C(=O)N[C@@H](C)C(=O)N[C@@H](CC(C)C)C(=O)N[C@@H](CC(=O)O)C(=O)N[C@@H](CCCCN)C(=O)N[C@@H](CCCCNC(=O)COCCOCCNC(=O)COCCOCCNC(=O)CC[C@H](NC(=O)CCCCCCCCCCCCCCCCCCC(=O)O)C(=O)O)C(=O)N[C@@H](Cc1c[nH]cn1)C(=O)N[C@@H](CCC(N)=O)C(=O)NC(C)(C)C(=O)N[C@@H](CC(=O)O)C(=O)N[C@@H](Cc1ccccc1)C(=O)N[C@H](C(=O)N[C@@H](CCC(=O)O)C(=O)N[C@@H](Cc1ccncc1)C(=O)N[C@@H](CC(C)C)C(=O)N[C@@H](CC(C)C)C(=O)N[C@@H](CCC(=O)O)C(=O)NCC(=O)NCC(=O)N1CCC[C@H]1C(=O)N[C@@H](CO)C(=O)N[C@@H](CO)C(=O)NCC(=O)N[C@@H](C)C(=O)N1CCC[C@H]1C(=O)N1CCC[C@H]1C(=O)N1CCC[C@H]1C(=O)N[C@@H](CO)C(N)=O)C(C)C [Example 44] (H-Y[Aib]EGT[αMeF]ISDYSIALDKK([AEEA-AEEA-γGlu-C20 diacid])HQ[Aib]DFVE[4Pal]LLEGGPSSGAPPPS-NH2) | 7.30 |
| CC[C@H](C)[C@H](NC(=O)[C@H](Cc1ccccc1)NC(=O)[C@@H](NC(=O)CNC(=O)[C@H](CCC(=O)O)NC(=O)C(C)(C)NC(=O)[C@@H](N)Cc1ccc(O)cc1)[C@@H](C)O)C(=O)N[C@@H](CO)C(=O)N[C@@H](CC(=O)O)C(=O)N[C@@H](Cc1ccc(O)cc1)C(=O)N[C@@H](CO)C(=O)N[C@H](C(=O)N[C@@](C)(CC(C)C)C(=O)N[C@@H](CC(C)C)C(=O)N[C@@H](CC(=O)O)C(=O)N[C@@H](CCCCN)C(=O)N[C@@H](CCCCNC(=O)COCCOCCNC(=O)COCCOCCNC(=O)CC[C@H](NC(=O)CCCCCCCCCCCCCCCCC(=O)O)C(=O)O)C(=O)N[C@@H](Cc1c[nH]cn1)C(=O)N[C@@H](CCC(N)=O)C(=O)NC(C)(C)C(=O)N[C@@H](CC(=O)O)C(=O)N[C@@H](Cc1ccccc1)C(=O)N[C@H](C(=O)N[C@@H](CCC(=O)O)C(=O)N[C@@H](Cc1ccncc1)C(=O)N[C@@H](CC(C)C)C(=O)N[C@@H](CC(C)C)C(=O)N[C@@H](C)C(=O)NCC(=O)NCC(=O)N1CCC[C@H]1C(=O)N[C@@H](CO)C(=O)N[C@@H](CO)C(=O)NCC(=O)N[C@@H](C)C(=O)N1CCC[C@H]1C(=O)N1CCC[C@H]1C(=O)N1CCC[C@H]1C(=O)N[C@@H](CO)C(N)=O)C(C)C)[C@@H](C)CC [Example 49] | < 6.02 |
| CC[C@H](C)[C@H](NC(=O)[C@H](CO)NC(=O)[C@H](Cc1ccc(O)cc1)NC(=O)[C@H](CC(=O)O)NC(=O)[C@H](CO)NC(=O)[C@@H](NC(=O)[C@](C)(Cc1ccccc1F)NC(=O)[C@@H](NC(=O)CNC(=O)[C@H](CCC(=O)O)NC(=O)C(C)(C)NC(=O)[C@@H](N)Cc1ccc(O)cc1)[C@@H](C)O)[C@@H](C)CC)C(=O)N[C@@H](C)C(=O)N[C@@H](CC(C)C)C(=O)N[C@@H](CC(=O)O)C(=O)N[C@@H](CCCCN)C(=O)N[C@@H](CCCCNC(=O)COCCOCCNC(=O)COCCOCCNC(=O)CC[C@H](NC(=O)CCCCCCCCCCCCCCCCCCC(=O)O)C(=O)O)C(=O)N[C@@H](Cc1c[nH]cn1)C(=O)N[C@@H](CCC(N)=O)C(=O)NC(C)(C)C(=O)N[C@@H](CC(=O)O)C(=O)N[C@@H](Cc1ccccc1)C(=O)N[C@H](C(=O)N[C@@H](CCC(=O)O)C(=O)N[C@@H](Cc1c[nH]c2ccccc12)C(=O)N[C@@H](CC(C)C)C(=O)N[C@@H](CC(C)C)C(=O)N[C@@H](CCC(=O)O)C(=O)N[C@H](C(=O)NCC(=O)N1CCC[C@H]1C(=O)N[C@@H](CO)C(=O)N[C@@H](CO)C(=O)NCC(=O)N[C@@H](C)C(=O)N1CCC[C@H]1C(=O)N1CCC[C@H]1C(=O)N1CCC[C@H]1C(=O)N[C@@H](CO)C(N)=O)[C@@H](C)O)C(C)C [Example 40] (H-Y[Aib]EGT[αMePhe(2-F)]ISDYSIALDKK([AEEA-AEEA-γGlu-C20 diacid])HQ[Aib]DFVEWLLETGPSSGAPPPS-NH2) | 7.29 |
| CC[C@H](C)[C@H](NC(=O)[C@H](Cc1ccccc1)NC(=O)[C@@H](NC(=O)CNC(=O)[C@H](CCC(=O)O)NC(=O)C(C)(C)NC(=O)[C@@H](N)Cc1ccc(O)cc1)[C@@H](C)O)C(=O)N[C@@H](CO)C(=O)N[C@@H](CC(=O)O)C(=O)N[C@@H](Cc1ccc(O)cc1)C(=O)N[C@@H](CO)C(=O)N[C@H](C(=O)N[C@@](C)(CC(C)C)C(=O)N[C@@H](CC(C)C)C(=O)N[C@@H](CC(=O)O)C(=O)N[C@@H](CCCCN)C(=O)N[C@@H](CCCCNC(=O)COCCOCCNC(=O)COCCOCCNC(=O)CC[C@H](NC(=O)CCCCCCCCCCCCCCCCCCC(=O)O)C(=O)O)C(=O)N[C@@H](Cc1c[nH]cn1)C(=O)N[C@@H](CCC(N)=O)C(=O)NC(C)(C)C(=O)N[C@@H](CCC(=O)O)C(=O)N[C@@H](Cc1ccccc1)C(=O)N[C@H](C(=O)N[C@@H](CCC(=O)O)C(=O)N[C@@H](Cc1ccncc1)C(=O)N[C@@H](CC(C)C)C(=O)N[C@@H](CC(C)C)C(=O)N[C@@H](C)C(=O)N[C@@H](C)C(=O)NCC(=O)N1CCC[C@H]1C(=O)N[C@@H](CO)C(=O)N[C@@H](CO)C(=O)NCC(=O)N[C@@H](C)C(=O)N1CCC[C@H]1C(=O)N1CCC[C@H]1C(=O)N1CCC[C@H]1C(=O)N[C@@H](CO)C(N)=O)C(C)C)[C@@H](C)CC [Example 59] | 6.64 |
| CC[C@H](C)[C@H](NC(=O)[C@H](Cc1ccccc1)NC(=O)[C@@H](NC(=O)CNC(=O)[C@H](CCC(=O)O)NC(=O)C(C)(C)NC(=O)[C@@H](N)Cc1ccc(O)cc1)[C@@H](C)O)C(=O)N[C@@H](CO)C(=O)N[C@@H](CC(=O)O)C(=O)N[C@@H](Cc1ccc(O)cc1)C(=O)N[C@@H](CO)C(=O)N[C@H](C(=O)N[C@@](C)(CC(C)C)C(=O)N[C@@H](CC(C)C)C(=O)N[C@@H](CC(=O)O)C(=O)N[C@@H](CCCCN)C(=O)N[C@@H](CCCCNC(=O)COCCOCCNC(=O)COCCOCCNC(=O)CC[C@H](NC(=O)CCCCCCCCCCCCCCCCCCC(=O)O)C(=O)O)C(=O)N[C@@H](Cc1c[nH]cn1)C(=O)N[C@@H](CCC(N)=O)C(=O)NC(C)(C)C(=O)N[C@@H](CC(=O)O)C(=O)N[C@@H](Cc1ccccc1)C(=O)N[C@H](C(=O)N[C@@H](CCC(=O)O)C(=O)N[C@@H](Cc1ccncc1)C(=O)N[C@@H](CC(C)C)C(=O)N[C@@H](CC(C)C)C(=O)N[C@@H](C)C(=O)NCC(=O)NCC(=O)N1CCC[C@H]1C(=O)N[C@@H](CO)C(=O)N[C@@H](CO)C(=O)NCC(=O)N[C@@H](C)C(=O)N1CCC[C@H]1C(=O)N1CCC[C@H]1C(=O)N1CCC[C@H]1C(=O)N[C@@H](CO)C(N)=O)C(C)C)[C@@H](C)CC [Example 48] | 6.57 |
| CC[C@H](C)[C@H](NC(=O)[C@H](CO)NC(=O)[C@H](Cc1ccc(O)cc1)NC(=O)[C@H](CC(=O)O)NC(=O)[C@H](CO)NC(=O)[C@@H](NC(=O)[C@](C)(Cc1ccccc1F)NC(=O)[C@@H](NC(=O)CNC(=O)[C@H](CCC(=O)O)NC(=O)C(C)(C)NC(=O)[C@@H](N)Cc1ccc(O)cc1)[C@@H](C)O)[C@@H](C)CC)C(=O)N[C@@H](C)C(=O)N[C@@H](CC(C)C)C(=O)N[C@@H](CC(=O)O)C(=O)N[C@@H](CCCCN)C(=O)N[C@@H](CCCCNC(=O)COCCOCCNC(=O)COCCOCCNC(=O)CC[C@H](NC(=O)CCCCCCCCCCCCCCCCCCC(=O)O)C(=O)O)C(=O)N[C@@H](Cc1c[nH]cn1)C(=O)N[C@@H](CCC(N)=O)C(=O)NC(C)(C)C(=O)N[C@@H](CC(=O)O)C(=O)N[C@@H](Cc1ccccc1)C(=O)N[C@H](C(=O)N[C@@H](CCC(=O)O)C(=O)N[C@@H](Cc1ccncc1)C(=O)N[C@@H](CC(C)C)C(=O)N[C@@H](CC(C)C)C(=O)N[C@@H](CCC(=O)O)C(=O)NCC(=O)NCC(=O)N1CCC[C@H]1C(=O)N[C@@H](CO)C(=O)N[C@@H](CO)C(=O)NCC(=O)N[C@@H](C)C(=O)N1CCC[C@H]1C(=O)N1CCC[C@H]1C(=O)N1CCC[C@H]1C(=O)N[C@@H](CO)C(N)=O)C(C)C [Example 39] (H-Y[Aib]EGT[αMePhe(2-F)]ISDYSIALDKK([AEEA-AEEA-γGlu-C20 diacid])HQ[Aib]DFVE[4Pal]LLEGGPSSGAPPPS-NH2) | 7.12 |
